Data from PubChem BioAssay AID179 (DTP/NCI, 2004).
“And” between values parts separate entries of the source, which are not always exact repeats. Identical values can stand only once. The source made the active and inactive calls.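 How the source made its calls: active means compounds giving half or more protection of infected cells from virus-caused growth loss, again on retest; inactive means the rest.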

Tested on: CEM cells HIV-1 protection, formazan growth assay
Test: NCI AIDS Antiviral Assay
Details: for IC50: measured here: growth of uninfected CEM cells
In short: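 Five concentrations of each compound were applied to infected and uninfected human CEM cells. Protection from HIV-1 was judged from growth measured with a soluble formazan assay.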

Row | SMILES | EC50 [µM] | IC50 | outcome
1 | CC1Cn2c(=O)[nH]c3cccc(c32)NC1=O (configuration not stated) | > 200 | 44.7 µM | 
2 | CC(C)NC(=O)OCc1c(COC(=O)NC(C)C)c(-c2ccc(Cl)c(Cl)c2)n2c1CCC2 | > 7.41 | 4.47 µM | 
3 | COc1cccc(NC(=S)/C(=C(/[O-])c2ccc(C)cc2)[n+]2ccccc2)c1 | > 200 | > 200 µM | 
4 | COc1cc2c(cc1OC)C(c1ccccc1CCCCl)=NCC2 | > 200 | 75.9 µM | 
5 | O=C(/C=C\c1cccc(C(F)(F)F)c1)c1ccccc1 |  |  | inactive
6 | CC(=O)Nc1ccc(Nc2cc(=O)[nH]c(=O)[nH]2)cc1 | > 200 | > 200 µM | 
7 | CCOC(=O)c1cn(Cc2ccccc2)c(=O)n1Cc1ccccc1 | > 107 | 60.3 µM | 
8 | C/C=C1\CNC2Cc3c([nH]c4ccccc34)C(=O)CC1C2C(=O)OC (configuration not stated) |  |  | inactive
9 | COc1ccc(Cc2nnc(C)c3c(C)[nH]nc23)cc1OC |  |  | inactive
10 | CCN(CC)Cc1c(OC)ccc2[nH]c3c4ccc(Cl)cc4ncc3c12 | > 200 | 1.1 µM | 
11 | CC(=O)Nc1ccc(-c2nnc(SCC(=O)Nc3ccc(Cl)cc3Cl)o2)cc1 | > 42.7 | 25.1 µM | 
12 | COC(=O)[C@H](Cc1c[nH]c2ccccc12)NP(=O)(O)OCC1C=CC(n2cc(C)c(=O)[nH]c2=O)O1 (some centres not stated) | 28.2 | > 200 µM | 
13 | N/C(=N/N=C/c1cc(Cl)ccc1O)N/N=C\c1cc(Cl)ccc1O | > 2 | 1 µM | 
14 | CCOC(=O)/C(=C\c1ccc(OCc2ccccc2)c(OC)c1)C(=O)c1ccccc1 | > 12.6 | > 12.6 µM | 
15 | COc1ccc2c(c1)CCc1c-2n(CCN2CCOCC2)c2ccc(OC)cc12 | > 200 | 166 µM | 
16 | O=C1c2ccccc2C(C2c3ccccc3C(=O)c3ccccc32)c2ccccc21 |  |  | inactive
17 | CC(=O)OCC1OC(n2c3c(cc(C#N)c2=S)CCCCC3)C(OC(C)=O)C(OC(C)=O)C1OC(C)=O (configuration not stated) | > 200 | > 200 µM | 
18 | Cc1cc(C)c(-n2[nH]c(=O)n(C)c2=O)c(C)c1 | > 200 | > 200 µM | 
19 | COC(=O)C1CCCCCCCCCCC12SCCCS2 (configuration not stated) | > 200 | > 200 µM | 
20 | CCN(CC)C(=S)[S][Bi]([S]C(=S)N(CC)CC)[S]C(=S)N(CC)CC | > 7.94 | 0.11 µM | 
21 | S=c1cc(-c2ccccc2)ss1 | > 200 | 38 µM and > 200 µM | 
22 | CC1(C)OC(=O)c2c(cc(N3CCOCC3)oc2=O)O1 | > 200 | > 200 µM | 

Row | SMILES | EC50 [µM] | IC50 | outcome
23 | CCn1c(=N)sc2nc3ccccc3n2c1=O | > 200 | 58.9 µM | 
24 | CCOC(=O)C(Cl)(Cl)/S(=N\S(=O)(=O)c1ccccc1)NC(=O)c1ccccc1 (configuration not stated) | > 200 | > 200 µM | 
25 | COC(=O)CCC(=O)CC(=O)C(=O)Nc1ccc(F)cc1 | > 45.7 | > 45.7 µM | 
26 | CCOC(=O)c1nc2ccc(C(F)(F)F)cc2nc1NCc1ccc(Cl)c(Cl)c1 | > 100 | 17 µM | 
27 | c1ccc(-c2nnc(SSSSc3nnc(-c4ccccc4)o3)o2)cc1 | > 200 | 107 µM | 
28 | Cc1ccc(S(=O)(=O)ON2C(=O)c3c(N)c(C#N)c(-c4ccccc4)c(-c4ccccc4)c3C2=O)cc1 | > 200 | 3.8 µM | 
29 | COCCOC(C)C(=O)C(O)S(=O)(=O)O (configuration not stated) | > 200 | 186 µM | 
30 | CNc1nc2c(C)ccc3[nH]c(N(C)C)nc3c-2n1 | > 759 | 50.1 µM | 
31 | Cc1[nH]c(=S)c(C#N)c(C)c1C | > 100 | > 100 µM | 
32 | CN(C)c1ccc(S(=O)Nc2ccccc2)cc1 (configuration not stated) | > 200 | 85.1 µM | 
33 | CSc1nc(N)c2c(n1)N(C)C=NS2(=O)=O | > 28.2 | > 28.2 µM | 
34 | N#Cc1c(-c2ccccc2)cc(-c2ccccc2)n(C2OC(CO)C(O)C(O)C2O)c1=S (configuration not stated) | > 200 | 15.1 µM and 26.9 µM | 
35 | COc1cc(O)c(C(=O)/C=C/c2ccc(Cl)c(Cl)c2)c(OC)c1 | > 200 | 3.02 µM | 
36 | CCCc1cc(=O)oc2c3c(c4c(c12)OC(C)(C)C=C4)O[C@H](C)[C@@H](C)[C@H]3O[Si](C)(C)C(C)(C)C | > 200 | > 200 µM | 
37 | COc1cc(CNc2nc3ccc(C(F)(F)F)cc3nc2-c2ccccc2)cc(OC)c1OC | > 11.2 | > 11.2 µM | 
38 | CCOc1ccc(OCC(=O)O)c2c1CCCC2=O |  |  | inactive
39 | C=C1c2nc3ccccc3n2C=C(c2ccc(OC)cc2)N1c1ccc(OC)cc1 | > 200 | 33.1 µM | 
40 | O=C(O)c1cc2ccccc2oc1=O | > 1320 | > 1320 µM | 
41 | CO/C(N)=C(\C#N)N=Cc1ccco1 | > 200 | 191 µM | 
42 | COc1ccc2c(c1)CN([C@@H](C)[C@H]1CC[C@H]3[C@@H]4CC[C@H]5C[C@@H](O)CC[C@]5(C)[C@H]4CC[C@]13C)CO2 | > 61.7 | 3.16 µM | 
43 | O=C1CC(c2ccc(O)cc2)Oc2cc(O)cc(O)c21 (configuration not stated) | > 200 | > 100 µM and 87.1 µM | 
44 | CCCC/C=C(/C1OC(=O)N2CCC[C@H]2C1(C)C)[Si](C)(C)C (some centres not stated) | > 6.17 | > 6.17 µM | 

Row | SMILES | EC50 [µM] | IC50 | outcome
45 | COc1c(OCc2ccccc2)c(OCc2ccccc2)cc(COS(=O)(=O)O)c1-c1c(COS(=O)(=O)O)cc(OCc2ccccc2)c(OCc2ccccc2)c1OC | > 1.58 | > 1.58 µM | 
46 | O=c1[nH]ncc2c1Sc1cn[nH]c(=O)c1S2 | > 10.7 | > 10.7 µM | 
47 | CC1(C)Oc2ccc3ccccc3c2[C@@H](OC(=O)C23CCC(C)(C(=O)O2)C3(C)C)[C@H]1OC(=O)C12CCC(C)(C(=O)O1)C2(C)C (some centres not stated) | > 200 | 3.55 µM | 
48 | CC1=NC(C)=C(/C(C)=N/NC(=O)c2ccccc2O)C(C)/C1=C(/C)NNC(=O)c1ccccc1O (configuration not stated) | > 186 | 8.71 µM | 
49 | NS(=O)(=O)c1ccc(Nc2c3ccccc3nc3c(C(=O)NC(CO)(CO)CO)cccc23)cc1 | > 200 | 3.39 µM | 
50 | CC1=NN(C(=O)Cc2ccccc2)C(=O)/C1=C\c1cccc(O)c1 | > 22.4 | > 22.4 µM | 
51 | S=c1[nH]nc(-c2ccccc2Cl)o1 | > 200 | 195 µM | 
52 | COC(=O)C1=C(C)N2[C@H](C(=O)O)CO[C@@]2(C)[C@H](C(=O)OC)[C@H]1c1cccc([N+](=O)[O-])c1 | > 200 | > 200 µM | 
53 | CO/C(=N\N=C(/c1ccccc1)C(F)(F)F)c1ccncc1 | > 200 | 27.5 µM | 
54 | BrC1(Br)C2/C=C\CCCCC21 (configuration not stated) |  |  | inactive
55 | COc1ccc(N=C2C(=Nc3ccc(OC)cc3)N(c3ccccc3)C(=S)N2N=C=C2Sc3ccccc3N2C)cc1 | > 200 | 25.7 µM | 
56 | O=C(C#Cc1ccccc1)N1c2ccccc2CC1c1c[nH]c2ccccc12 (configuration not stated) | > 20 | 8.32 µM | 
57 | COC(CN(C(=O)c1ccccc1)C1CCC2(SCCS2)c2[nH]c3ccccc3c21)OC (configuration not stated) | > 200 | 14.5 µM | 
58 | CCC12C=CCN3CC[C@]4(C(=C(C(=O)OC)[C@@H]1Nc1ncnc5c1ncn5C1OC(COC(C)=O)C(OC(C)=O)C1OC(C)=O)Nc1ccccc14)C32 (some centres not stated) | > 13.8 | 7.76 µM | 
59 | Cc1nc(Nc2ccc(Cl)cc2)sc1C(=O)NNC(=O)C(=O)NN | > 19.5 | > 19.5 µM | 
60 | CC(=O)NC1(NC(C)=O)C2CC(C1Cc1ccccc1)C(C)(C)C2C (configuration not stated) | > 724 | > 724 µM | 
61 | CCOC(=O)c1cc(-c2ccc(-c3cc(C(=O)OCC)c(C#N)c(N)c3C#N)cc2)c(C#N)c(N)c1C#N | > 26.9 | > 26.9 µM | 
62 | CCOC(=O)C(c1c(O)c2ccccc2oc1=O)c1c(O)c2ccccc2oc1=O | > 617 | 64.6 µM | 
63 | O=C(NCCCC1C2CCC(C2)C1CNC(=O)Nc1cccc(Cl)c1)Nc1cccc(Cl)c1 (configuration not stated) | > 200 | 3.63 µM | 
64 | CC(=O)Nc1ccc(SS(=O)(=O)c2ccc(NC(C)=O)cc2)cc1 | > 490 | 204 µM | 
65 | CCOC(=O)/C(C#N)=C/c1[nH]c(C)c(C)c1C |  |  | inactive
66 | CC(C)C1(O)C(c2ccccc2)=C(c2ccccc2)C(c2ccccc2)=C1c1ccccc1 |  |  | inactive

Row | SMILES | EC50 [µM] | IC50 | outcome
67 | Cc1sc2c(c1C)/C(=N\O)c1cccn1-2 | > 200 | 41.7 µM | 
68 | O=C(O)c1ccc(NNC(=O)c2cccc3c(=O)c4ccccc4[nH]c23)cc1 | > 200 | 74.1 µM | 
69 | N#CC(C(=N/NC(N)=S)/C(=N\NC(N)=S)C(C#N)c1ccccc1)c1ccccc1 (configuration not stated) | > 97.7 | 47.9 µM | 
70 | ClC(Cl)(Cl)SSC(=Nc1ccccc1)SSC(Cl)(Cl)Cl | > 200 | 4.79 µM | 
71 | C/C(=N\N=C(/[Se])N1CC2CCC(CC2)C1)c1ccccn1 | > 53.7 | 0.17 µM | 
72 | Clc1ncnc2c1ncn2CCCCCCCCCCCCn1cnc2c(Cl)ncnc21 |  |  | inactive
73 | O=C(Oc1ccc(N=Cc2ccc3c(c2)OCO3)cc1)Oc1ccc(N=Cc2ccc3c(c2)OCO3)cc1 |  |  | inactive
74 | Cc1nc2ccccc2c(=O)n1-c1nc2ccccc2s1 | > 200 | 31.6 µM | 
75 | O=C1Nc2cc(F)ccc2C1=O | > 1510 | 251 µM | 
76 | CN(O)C(=O)c1ccc(OCc2cccc(Cl)c2)cc1 | > 200 | 12.6 µM | 
77 | O=C1c2ccncc2C(=O)c2c1[nH]c1ccccc21 | > 200 | 3.16 µM | 
78 | C[N+]1=C(c2ccc[nH]2)CC(C(=O)[O-])CC1 (configuration not stated) | > 200 | > 200 µM | 
79 | CC12CCC(O1)C1C(=O)OC(=O)C12 (configuration not stated) | > 490 | 437 µM | 
80 | O[C@H]1[C@H]2c3cc4c(cc3CN3CCC(C[C@@H]1O)[C@H]23)OCO4 (some centres not stated) |  |  | inactive
81 | COc1ccc(C2=C(N)c3c(Cl)cccc3C2=O)cc1 | > 200 | 155 µM | 
82 | COC12OCCN(CCO)C1=CC(=O)C1(C)N=NC(C)C12 (configuration not stated) |  |  | inactive
83 | c1ccc(-c2nnc(-c3ccccc3)c3nonc23)cc1 | > 95.5 | > 95.5 µM | 
84 | C[N+]12C=CC=C1C(N1CCCC1)c1sc(-c3ccc(Cl)cc3)cc12 (configuration not stated) | > 200 | 12.9 µM | 
85 | Cc1cc2c(cc1CO)N1Cc3cc(C)c(CO)cc3N(C2)C1 |  |  | inactive
86 | [N-]=[N+]=Nc1c([N+](=O)[O-])c(Cl)nc2ccccc12 | > 20 | 10 µM | 
87 | COc1ccc(OC2OC(COC(c3ccccc3)(c3ccc(OC)cc3)c3ccc(OC)cc3)C(O)C(O)C2O)cc1 (configuration not stated) | > 200 | 8.91 µM | 
88 | CCCCCCCCCCCCC(CC)CCCCC(=O)O (configuration not stated) |  |  | inactive
